From patent US20250171438A1 (Agios Pharmaceuticals, Inc., priority 2022, published 2025) come the findings set out here.

Read-outs that look alike come from different tables or passages of the source. A value given as a limit tells only on which side of the number the result lay.

The experiment has as its target T1, human PAH with the R408W mutation (Homo sapiens, UniProt P00439, R408W).
T1 construct: expressed in transfected cells
T1 sequence (P00439 1-452 R408W): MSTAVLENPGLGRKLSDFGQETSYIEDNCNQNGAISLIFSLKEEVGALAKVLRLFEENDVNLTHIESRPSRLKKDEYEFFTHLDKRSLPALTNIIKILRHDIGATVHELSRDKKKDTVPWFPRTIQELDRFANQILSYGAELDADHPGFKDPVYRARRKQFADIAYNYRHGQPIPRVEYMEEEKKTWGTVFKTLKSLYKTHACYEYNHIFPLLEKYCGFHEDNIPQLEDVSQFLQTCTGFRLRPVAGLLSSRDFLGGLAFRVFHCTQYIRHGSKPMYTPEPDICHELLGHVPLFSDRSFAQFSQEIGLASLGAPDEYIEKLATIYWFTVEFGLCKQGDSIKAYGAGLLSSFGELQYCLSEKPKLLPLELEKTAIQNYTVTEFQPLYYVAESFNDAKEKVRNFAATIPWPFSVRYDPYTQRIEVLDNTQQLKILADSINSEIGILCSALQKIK
Briefly: Cell Based Phenylalanine Flux Assay. To be noted: A375 cells expressing human R408W PAH, 13C-Tyrosine by LC-MS, average where tested multiple times. Also noted: scale not given here.

The mark [1] stands for this setting: 24 hrs compound incubation, read-out: AC50.
Setting [2] is: 24 hrs with compound, read-out: AC50.

Take `O=C(c1nncn1C1CC1)N1CCc2[nH]cnc2[C@H]1c1nc2c(F)cccc2s1` [Example 2084]: the AC50 under setting [1] is 0.5 to 1 µM.

Consider `CC(C)(CO)c1nc(C(F)F)c(C(=O)N2CCc3[nH]cnc3[C@@H]2c2nc3c(F)cccc3s2)o1` [Example 2072, (R)-(4-(difluoromethyl)-2-(1-hydroxy-2-methylpropan-2-yl)oxazol-5-yl)(4-(4-fluorobenzo[d]thiazol-2-yl)-6,7-dihydro-1H-imidazo[4,5-c]pyridin-5(4H)-yl)methanone], for which, under setting [1], the AC50 lay within 0.5 to 1 µM.

`O=C(CCc1nccs1)N1CCc2[nH]cnc2[C@H]1c1nc(-c2ccccc2)cs1` [Example 2143]: the AC50 under setting [1] was in the range of 1 to 5 µM.

On to `Cn1nc(Br)nc1C(=O)N1CCc2[nH]cnc2C1c1nc2c(F)cccc2s1` (centres unmarked), for which the AC50 under setting [2] fell in the range of 1 to 5 µM.

For `c1ccc2[nH]c([C@H]3c4nc[nH]c4CCN3c3nc4ccccc4o3)nc2c1` [Example 987, (R)-2-(4-(1H-benzo[d]imidazol-2-yl)-6,7-dihydro-1H-imidazo[4,5-c]pyridin-5(4H)-yl)benzo[d]oxazole], the AC50 under setting [1] was above 5 µM.

Turning to `CC(C)(O)c1nc(C(F)F)c(C(=O)N2CCc3[nH]cnc3[C@@H]2c2nc3c(F)cccc3s2)s1` [Example 2086, (R)-(4-(difluoromethyl)-2-(2-hydroxypropan-2-yl)thiazol-5-yl)(4-(4-fluorobenzo[d]thiazol-2-yl)-6,7-dihydro-1H-imidazo[4,5-c]pyridin-5(4H)-yl)methanone], under setting [1], the AC50 fell in the range of 0.5 to 1 µM.

As for `O=C(CCC1CC1)N1CCc2[nH]cnc2C1c1nc2ccccc2[nH]1` (centres unmarked), the AC50 result (24 hrs with compound) was “E, E”.

On to `Cc1cnc(C(=O)N2CCc3[nH]cnc3[C@H]2c2nc3ccccc3[nH]2)s1` [(S)-(4-(1H-benzo[d]imidazol-2-yl)-1,4,6,7-tetrahydro-5H-imidazo[4,5-c]pyridin-5-yl)(5-methylthiazol-2-yl)methanone], for which, under setting [2], the AC50 lay in the range of 1 to 5 µM.

On to `Cn1ncc(Cl)c1C(=O)N1CCc2[nH]cnc2[C@H]1c1nc2c(F)cccc2s1` [Example 1733], for which the AC50 under setting [1] was in the range of 0.5 to 1 µM.

In the case of `NC(=O)Cn1ncc(C(=O)N2CCc3[nH]cnc3C2c2nc3c(F)cccc3s2)c1C(F)F` (centres unmarked), the AC50 under setting [2] lay in the range of 1 to 5 µM.

Consider `C[C@@H]1CN(C(=O)c2nnc(-c3ccc(F)cn3)o2)[C@@H](c2nc3ccccc3s2)c2nc[nH]c21` [Example 1753, ((4R,7R)-4-(benzo[d]thiazol-2-yl)-7-methyl-6,7-dihydro-1H-imidazo[4,5-c]pyridin-5(4H)-yl)(5-(5-fluoropyridin-2-yl)-1,3,4-oxadiazol-2-yl)methanone], for which the AC50 under setting [1] was in the range of 1 to 5 µM.

`O=C(CCC1CC1)N1CCc2[nH]cnc2[C@H]1c1nc2ccc(F)cc2[nH]1` [Example 962, (S)-3-cyclopropyl-1-(4-(6-fluoro-1H-benzo[d]imidazol-2-yl)-6,7-dihydro-1H-imidazo[4,5-c]pyridin-5(4H)-yl)propan-1-one]: the AC50 under setting [1] was below 0.5 µM.

Regarding `O=C(c1nnc(-c2cnn(C(F)F)c2)o1)N1CCc2[nH]cnc2[C@@H]1c1nc2c(F)cccc2s1` [Example 1823, (R)-(5-(1-(difluoromethyl)-1H-pyrazol-4-yl)-1,3,4-oxadiazol-2-yl)(4-(4-fluorobenzo[d]thiazol-2-yl)-6,7-dihydro-1H-imidazo[4,5-c]pyridin-5(4H)-yl)methanone], the AC50 under setting [1] was 1 to 5 µM.

Turning to `O=C(c1cn(-c2ccccn2)nc1Cl)N1CCc2[nH]cnc2[C@@H]1c1nc2c(F)cccc2s1` [Example 1770, (R)-(3-chloro-1-(pyridin-2-yl)-1H-pyrazol-4-yl)(4-(4-fluorobenzo[d]thiazol-2-yl)-6,7-dihydro-1H-imidazo[4,5-c]pyridin-5(4H)-yl)methanone], the AC50 under setting [1] was in the range of 1 to 5 µM.

In the case of `Cc1nnc(N2CC(C(=O)N3CCc4[nH]cnc4[C@H]3c3nc4ccccc4s3)C2)o1` (single isomer, unassigned), the concentration at half-maximal activity (AC50) under setting [2] was above 5 µM.

Regarding `O=C(Cc1nccs1)N1CCc2[nH]cnc2C1c1nc2ccc(F)cc2[nH]1` (centres unmarked), the half-maximal activity concentration (AC50) under setting [2] is above 5 µM.

As for `O=C(N1CCC(O)C1)N1CCc2[nH]cnc2C1c1nc2ccccc2s1` [4S enantiomer of (3R)-1-[4-(1,3-benzothiazol-2-yl)-1H,4H,5H,], the AC50 under setting [2] fell in the range of 1 to 5 µM.

In the case of `Cn1cc(-c2ncc(C(=O)N3CCc4[nH]cnc4[C@H]3c3nc4c(F)cccc4s3)o2)cn1` [Example 1346, (S)-(4-(4-fluorobenzo[d]thiazol-2-yl)-6,7-dihydro-1H-imidazo[4,5-c]pyridin-5(4H)-yl)(2-(1-methyl-1H-pyrazol-4-yl)oxazol-5-yl)methanone], the AC50 under setting [1] lay within 0.5 to 1 µM.

As to `Cc1nc(-c2ccccc2)c(C(=O)N2CCc3[nH]cnc3[C@@H]2c2nc3ccccc3s2)o1` [Example 1519, (R)-(4-(benzo[d]thiazol-2-yl)-6,7-dihydro-1H-imidazo[4,5-c]pyridin-5(4H)-yl)(2-methyl-4-phenyloxazol-5-yl)methanone], under setting [1], the AC50 was above 5 µM.

Regarding `Cc1csc(C(=O)N2CCc3[nH]cnc3[C@H]2c2nc3ccccc3[nH]2)n1` [(S)-(4-(1H-benzo[d]imidazol-2-yl)-1,4,6,7-tetrahydro-5H-imidazo[4,5-c]pyridin-5-yl)(4-methylthiazol-2-yl)methanone], the concentration at half-maximal activity (AC50) under setting [2] is 1 to 5 µM.

With `CC(C)(C)n1ncc(C(=O)N2CCc3[nH]cnc3[C@H]2c2nc3c(F)cccc3s2)c1Cl` [Example 1931], the AC50 under setting [1] fell in the range of 0.5 to 1 µM.

Turning to `O=C(C1CC1)N1CCc2[nH]cnc2C1c1nc2ccc(Br)cc2s1` (centres unmarked), the AC50 under setting [2] lay within 1 to 5 µM.

Take `O=C(c1cnn(CC2CC(F)(F)C2)c1Cl)N1CCc2[nH]cnc2[C@@H]1c1nc2c(F)cccc2s1` [Example 1990, (R)-(5-chloro-1-((3,3-difluorocyclobutyl)methyl)-1H-pyrazol-4-yl)(4-(4-fluorobenzo[d]thiazol-2-yl)-6,7-dihydro-1H-imidazo[4,5-c]pyridin-5(4H)-yl)methanone]: under setting [1], the AC50 was 1 to 5 µM.

On to `O=C(C1CCC1)N1CCc2[nH]cnc2[C@@H]1c1nc2ccccc2s1` [Example 1154, (R)-(4-(benzo[d]thiazol-2-yl)-6,7-dihydro-1H-imidazo[4,5-c]pyridin-5(4H)-yl)(cyclobutyl)methanone], for which, under setting [1], the AC50 is above 5 µM.

Turning to `O=C(CC1CC(F)(F)C1)N1CCc2[nH]cnc2[C@@H]1c1nc2ccccc2s1` [Example 1278, (R)-1-(4-(benzo[d]thiazol-2-yl)-6,7-dihydro-1H-imidazo[4,5-c]pyridin-5(4H)-yl)-2-(3,3-difluorocyclobutyl)ethanone], the AC50 under setting [1] is 1 to 5 µM.

As to `O=C(c1nnc(-c2ccccn2)o1)N1CCCc2[nH]cnc2C1c1nc2ccccc2[nH]1` (centres unmarked), the AC50 under setting [2] is above 5 µM.

Regarding `O=C(c1cnc(-c2ccccn2)o1)N1CCc2[nH]cnc2[C@@H]1c1nc2ccccc2s1` [Example 1318, (R)-(4-(benzo[d]thiazol-2-yl)-6,7-dihydro-1H-imidazo[4,5-c]pyridin-5(4H)-yl)(2-(pyridin-2-yl)oxazol-5-yl)methanone], the AC50 under setting [1] fell in the range of 1 to 5 µM.

Regarding `O=C(c1oc(-c2ccccn2)nc1Br)N1CCc2[nH]cnc2[C@@H]1c1nc2ccccc2s1` [Example 1849, (R)-(4-(benzo[d]thiazol-2-yl)-6,7-dihydro-1H-imidazo[4,5-c]pyridin-5(4H)-yl)(4-bromo-2-(pyridin-2-yl)oxazol-5-yl)methanone], under setting [1], the AC50 lay in the range of 1 to 5 µM.

For the compound `O=C(c1cncs1)N1CCc2[nH]cnc2[C@@H]1c1nc2ccccc2s1` [Example 1060, (R)-(4-(benzo[d]thiazol-2-yl)-6,7-dihydro-1H-imidazo[4,5-c]pyridin-5(4H)-yl)(thiazol-5-yl)methanone], under setting [1], the AC50 was above 5 µM.
